Results from patent US7388095B2, “5-substituted indole-2-carboxamide derivatives” (Hoffmann-La Roche Inc., priority 2005, dated 2008).

Biological target: T1, histamine 3 receptor (H3R) (Homo sapiens, UniProt Q9Y5N1)
T1 construct: expressed in transfected cells; host or cells: CHO cells (HR3-CHO cell line), membrane preparation
Assay: Competition binding assay with 3H-(R)α-methylhistamine on membranes of the human HR3-CHO cell line
Conditions: 3H(R)α-methylhistamine 1 nM, Ki calculated from IC50 by Cheng-Prusoff equation
Method: Binding assay with ^3H-(R)α-methylhistamine
Saturation binding experiments were performed using HR3-CHO membranes prepared as described in Takahashi, K, Tokita, S., Kotani, H. (2003) J. Pharmacol. Exp. Therapeutics 307, 213-218.
An appropriate amount of membrane (60 to 80 μg protein/well) was incubated with increasing concentrations of ^3H(R)α-Methylhistamine di-hydrochloride (0.10 to 10 nM). Non-specific binding was determined using a […] excess of cold (R)α-methylhistamine dihydrobromide (500 nM final concentration). The incubation was carried out at room temperature (in deep-well plates shaking for three hours). The final volume in each well was 250 μl. The incubation was followed by rapid filtration on GF/B filters (pre-soaked with 100 μl of 0.5% PEI in Tris 50 mM shaking at 200 rpm for two hours). The filtration was made using a cell-harvester and the filter plates were then washed five times with ice cold washing buffer containing 0.5 M NaCl. After harvesting, the plates were dried at 55° C. for 60 min, then scintillation fluid (Microscint 40, 40 microl in each well) was added and the amount of radioactivity on the filter was determined with a Packard top-counter after shaking the plates for two hours at 200 rpm at room temperature.
Binding Buffer: 50 mM Tris-HCl pH 7.4 and 5 mM MgCl2x6H2O pH 7.4. Washing Buffer: 50 mM Tris-HCl pH 7.4 and 5 mM MgCl2x6H2O and 0.5 M NaCl pH 7.4.
Indirect measurement of affinity of H3R inverse agonists: twelve increasing concentrations (ranging from 10 μM to 0.3 nM) of the selected compounds were always tested in competition binding experiments using membrane of the human HR3-CHO cell line. An appropriate amount of protein, e.g. approximately 500 cpm binding of RAMH at Kd, were incubated for 1 hour at room temperature in 250 μl final volume in 96-well plates in presence of ^3H(R)α-methylhistamine (1 nM final concentration=Kd). […]
All compounds were tested at a single concentration in duplicates. […] Ki's were calculated from IC50 based on Cheng-Prusoff equation (Cheng, Y, Prusoff, W H (1973) Biochem Pharmacol 22, 3099-3108).

T1 sequence (Q9Y5N1 whole entry): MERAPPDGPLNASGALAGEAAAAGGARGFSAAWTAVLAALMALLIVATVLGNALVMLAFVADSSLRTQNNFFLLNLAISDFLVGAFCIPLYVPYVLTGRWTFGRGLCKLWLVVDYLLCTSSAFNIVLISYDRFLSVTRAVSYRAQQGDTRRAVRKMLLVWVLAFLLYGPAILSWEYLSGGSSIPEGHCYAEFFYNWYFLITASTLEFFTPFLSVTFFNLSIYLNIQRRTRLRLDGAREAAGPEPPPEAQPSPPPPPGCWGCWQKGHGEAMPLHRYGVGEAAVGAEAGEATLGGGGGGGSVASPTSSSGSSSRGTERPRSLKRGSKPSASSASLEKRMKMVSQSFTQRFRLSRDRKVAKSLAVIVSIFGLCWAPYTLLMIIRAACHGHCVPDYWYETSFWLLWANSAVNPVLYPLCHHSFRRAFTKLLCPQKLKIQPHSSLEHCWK

SMILES	Ki [nM]
CC(C)N1CCOC(COc2ccc3c(c2)cc(C(=O)N2CCOCC2)n3CC(F)(F)F)C1 (stereo not drawn) [Example 1, [5-(4-Isoopropyl-morpholin-2-ylmethoxy)-1-(2,2,2-trifluoro-ethyl)-1H-indol-2-yl]-morpholin-4-yl-methanone]	30
O=C(c1cc2cc(OCCCN3CC4CC4C3)ccc2[nH]1)N1CCOCC1 (stereo not drawn) [Example 5, {5-[3-(3-Aza-bicyclo[3.1.0]hex-3-yl)-propoxy]-1H-indol-2-yl}-morpholin-4-yl-methanone]	40
O=C(c1cc2cc(OCCCN3CC4CC4C3)ccc2n1CC(F)(F)F)N1CCOCC1 (stereo not drawn) [Example 6, [5-[3-(3-Aza-bicyclo[3.1.0]hex-3-yl)-propoxy]-1-(2,2,2-trifluoro-ethyl)-1H-indol-2-yl]-morpholin-4-yl-methanone]	26
